What was measured:
Test in all cases: relative viability (nuclei count vs DMSO), 5 days (fraction); higher = more cells survive
[1] = test system: COR-L 105
How it was run: (§1)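 Relative viability was taken as the ratio of nuclei in treated wells to nuclei in vehicle wells. Lung cancer cell lines in 1536-well plates received compounds by pin tool one day after seeding, either one drug alone or a fixed anchor-drug dose plus five library-drug doses (not always all listed) in √10 steps. Nuclei were counted on 4× images after 5 days of treatment, and values are medians of duplicate plates.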

[2] = test system: HCC-366
How it was run: as §1

[3] = test system: PC-3 [JPC-3]
How it was run: as §1

[4] = test system: SW 900
How it was run: as §1

[5] = test system: NCI-H1734
How it was run: as §1

[6] = test system: LK-2
How it was run: as §1

[7] = test system: LOU-NH91
How it was run: as §1

[8] = test system: NCI-H1755
How it was run: as §1

[9] = test system: NCI-H23
How it was run: as §1

[10] = test system: NCI-H1975
How it was run: as §1

[11] = test system: A-427
How it was run: as §1

[12] = test system: SK-MES-1
How it was run: as §1

[13] = test system: H3255
How it was run: as §1

[14] = test system: ChaGo-K-1
How it was run: as §1

[15] = test system: NCI-H441
How it was run: as §1

[16] = test system: NCI-H596
How it was run: as §1

[17] = test system: NCI-H1666
How it was run: as §1

[18] = test system: EMC-BAC-2
How it was run: as §1

[19] = test system: EKVX
How it was run: as §1

[20] = test system: NCI-H2170
How it was run: as §1

[21] = test system: NCI-H520
How it was run: as §1

O=c1cc(N2CCOCC2)oc2c(-c3cccc4c3sc3ccccc34)cccc12 + CC(=O)Nc1cccc(-n2c(=O)n(C3CC3)c(=O)c3c(Nc4ccc(I)cc4F)n(C)c(=O)c(C)c32)c1 [Trametinib] (partner 0.02 µM)
relative viability ([1]; first compound 0.01 µM): 0.414
relative viability ([1]; first compound 0.03162 µM): 0.427
relative viability ([1]; first compound 0.1 µM): 0.446
relative viability ([1]; first compound 0.3162 µM): 0.451
relative viability ([1]; first compound 1 µM): 0.429
relative viability ([2]; first compound 0.01 µM): 0.411
relative viability ([2]; first compound 0.03162 µM): 0.355
relative viability ([2]; first compound 0.1 µM): 0.36
relative viability ([2]; first compound 0.3162 µM): 0.333
relative viability ([2]; first compound 1 µM): 0.322
relative viability ([3]; first compound 0.01 µM): 0.623
relative viability ([3]; first compound 0.03162 µM): 0.675
relative viability ([3]; first compound 0.1 µM): 0.649
relative viability ([3]; first compound 0.3162 µM): 0.729
relative viability ([3]; first compound 1 µM): 0.655
relative viability ([4]; first compound 0.03162 µM): 0.922
relative viability ([4]; first compound 0.1 µM): 0.949
relative viability ([4]; first compound 0.3162 µM): 0.858
relative viability ([4]; first compound 1 µM): 0.82
relative viability ([5]; first compound 0.01 µM): 0.772
relative viability ([5]; first compound 0.03162 µM): 0.747
relative viability ([5]; first compound 0.1 µM): 0.637
relative viability ([5]; first compound 0.3162 µM): 0.69
relative viability ([5]; first compound 1 µM): 0.758
relative viability ([6]; first compound 0.01 µM): 0.808
relative viability ([6]; first compound 0.03162 µM): 0.807
relative viability ([6]; first compound 0.1 µM): 0.957
relative viability ([6]; first compound 0.3162 µM): 0.515
relative viability ([6]; first compound 1 µM): 0.902
relative viability ([7]; first compound 0.01 µM): 0.801
relative viability ([7]; first compound 0.03162 µM): 0.798
relative viability ([7]; first compound 0.1 µM): 0.782
relative viability ([7]; first compound 0.3162 µM): 0.821
relative viability ([7]; first compound 1 µM): 0.767
relative viability ([8]; first compound 0.01 µM): 0.807
relative viability ([8]; first compound 0.03162 µM): 0.83
relative viability ([8]; first compound 0.1 µM): 0.81
relative viability ([8]; first compound 0.3162 µM): 0.741
relative viability ([8]; first compound 1 µM): 0.819
relative viability ([9]; first compound 0.01 µM): 0.351
relative viability ([9]; first compound 0.03162 µM): 0.375
relative viability ([9]; first compound 0.3162 µM): 0.359
relative viability ([9]; first compound 1 µM): 0.347
relative viability ([10]; first compound 0.01 µM): 0.434
relative viability ([10]; first compound 0.03162 µM): 0.337
relative viability ([10]; first compound 0.1 µM): 0.401
relative viability ([10]; first compound 0.3162 µM): 0.361
relative viability ([10]; first compound 1 µM): 0.293
relative viability ([11]; first compound 0.01 µM): 0.869
relative viability ([11]; first compound 0.03162 µM): 0.775
relative viability ([11]; first compound 0.1 µM): 0.747
relative viability ([11]; first compound 0.3162 µM): 0.812
relative viability ([11]; first compound 1 µM): 0.695
relative viability ([12]; first compound 0.01 µM): 0.546
relative viability ([12]; first compound 0.03162 µM): 0.533
relative viability ([12]; first compound 0.1 µM): 0.518
relative viability ([12]; first compound 0.3162 µM): 0.516
relative viability ([12]; first compound 1 µM): 0.48
relative viability ([13]; first compound 0.01 µM): 0.548
relative viability ([13]; first compound 0.03162 µM): 0.691
relative viability ([13]; first compound 0.1 µM): 0.675
relative viability ([13]; first compound 0.3162 µM): 0.703
relative viability ([13]; first compound 1 µM): 0.552
relative viability ([14]; first compound 0.01 µM): 0.845
relative viability ([14]; first compound 0.03162 µM): 0.958
relative viability ([14]; first compound 0.1 µM): 0.966
relative viability ([14]; first compound 0.3162 µM): 0.893
relative viability ([14]; first compound 1 µM): 0.882
relative viability ([15]; first compound 0.01 µM): 0.513
relative viability ([15]; first compound 0.03162 µM): 0.431
relative viability ([15]; first compound 0.1 µM): 0.406
relative viability ([15]; first compound 0.3162 µM): 0.479
relative viability ([15]; first compound 1 µM): 0.42
relative viability ([16]; first compound 0.01 µM): 0.758
relative viability ([16]; first compound 0.03162 µM): 0.866
relative viability ([16]; first compound 0.1 µM): 0.831
relative viability ([16]; first compound 0.3162 µM): 0.711
relative viability ([16]; first compound 1 µM): 0.717
relative viability ([17]; first compound 0.01 µM): 0.882
relative viability ([17]; first compound 0.03162 µM): 0.829
relative viability ([17]; first compound 0.1 µM): 0.84
relative viability ([17]; first compound 0.3162 µM): 0.814
relative viability ([17]; first compound 1 µM): 0.849
relative viability ([18]; first compound 0.01 µM): 0.976
relative viability ([18]; first compound 0.03162 µM): 0.93
relative viability ([18]; first compound 0.1 µM): 0.931
relative viability ([18]; first compound 0.3162 µM): 0.774
relative viability ([18]; first compound 1 µM): 0.865
relative viability ([19]; first compound 0.01 µM): 0.299
relative viability ([19]; first compound 0.03162 µM): 0.312
relative viability ([19]; first compound 0.1 µM): 0.337
relative viability ([19]; first compound 0.3162 µM): 0.321
relative viability ([19]; first compound 1 µM): 0.303
relative viability ([20]; first compound 0.01 µM): 0.895
relative viability ([20]; first compound 0.03162 µM): 0.897
relative viability ([20]; first compound 0.1 µM): 0.982
relative viability ([20]; first compound 0.3162 µM): 0.801
relative viability ([20]; first compound 1 µM): 0.889
relative viability ([21]; first compound 0.01 µM): 1.14
relative viability ([21]; first compound 0.03162 µM): 0.594
relative viability ([21]; first compound 0.1 µM): 0.768
relative viability ([21]; first compound 0.3162 µM): 0.717
relative viability ([21]; first compound 1 µM): 0.732
